The values that follow come from patent US20140259191A1, “FISH ANESTHETIC AND METHOD” (AQUA-MOR TECHNOLOGIES LTD., priority 2011, published 2014).

One data set has as its system Koi fish. The data set is described as follows: Anesthesia of Koi fish by linalool added to tank water. Format: in vivo. The procedure:
(§1) A one year old koi fish of body length 11 cm and which appeared to be healthy was placed in a 4 liter tank containing water at 25° C. and in which the water was circulated by means of aeration. A liquid a mixture containing 1 wt. % synthetic linalool (1 wt. % linalool, 5 wt. % 14R, 2 wt. % AF80 and 92 wt. % water) was added to the tank and manually mixed with the water so that the concentration of linalool in the water was 50 ppm. This was regarding as the starting time of the experiment; thereafter, observations were made regularly to determine the behavior of the fish in water. This continued until no response to external stimulation and complete loss of equilibrium were observed, at which point the fish was transferred to a recovery tank containing fresh water. The fish was placed near the air pump, and the time until the fish again swam and responded normally to external stimulation was recorded.
The experiment of Example 1 was repeated, using a one year old Koi fish of 12 cm body length, and adding the linalool formulation to a linalool concentration in the water of 75 ppm instead of 50 ppm. After 2 minutes of exposure to linalool the fish appeared to be in slight stress. […] At 20 minutes the fish was removed to a recovery tank with clean water. Thereafter it recovered slowly and after 40 minutes was swimming around in the tank and appeared to have resumed normal activity.
The experiment of Example 1 was repeated, using a one year old Koi fish of 12.5 cm body length, and adding the linalool formulation to a linalool concentration in the water of 100 ppm instead of 50 ppm. […] At 6 minutes the fish was removed to a recovery tank with clean water. Thereafter it recovered slowly and after 30 minutes was swimming around in the tank and appeared to have resumed normal activity.
To a four liter tank containing three one-year old Koi fish of respective weights 30 g, 29 g and 31 g and respective body lengths 11 cm, 12 cm and 12.5 cm in water at 21° C. and pH 7 was added a formulation containing 1% linalool. The formulation was added to the water to a linalool concentration of 50 ppm in the water. The fish became relaxed 6 minutes after addition of linalool and after 9 minutes were completely anesthetized. At 9 5 minutes the fish were removed to a recovery tank with fresh water. After 40 minutes in the recovery tank the fish resumed normal behavior.

The next data set relates to Ramirez fish. The data set is described as follows: Anesthesia of Ramirez fish by linalool or Ho Wood oil added to tank water. The format is in vivo. The protocol:
as §1
This experiment repeated the experiment of Example 1, using three goldfish (Carassius auratus auratus, average body length 12.5 cm) and five Ramirez fish (Mikrogeophagus ramirezi, body length 3.5-4 cm). All fishes appeared to be healthy. The goldfish tank held 4 liters of water and the tank holding the Ramirez fish one liter.
The experiment of example 9 was repeated, this time using five nine-month old Ramirez fish (M. ramirezi) in a one-liter tank. The respective weights were 0.8 g, 0.75 g, 0.7 g, 0.85 g and 0.75 g and the respective body lengths were 3.5 cm, 3.5 cm, 3 cm, 4 cm and 3 cm. The water temperature was 26° C. and the pH was 7. The fish became relaxed 2 minutes after addition of linalool, and after 5 minutes the fish were completely anesthetized. After 10 minutes the fish were removed to a recovery tank with fresh water. After 5 minutes in the recovery tank the fish had resumed normal behavior.
The experiment of Example 21 was repeated, using four one-year old Ramirez fish of respective body lengths 3, 2.5, 3 and 3.5 cm, and adding the Ho Wood oil to a linalool concentration of 50 ppm in the water. […] At 2.5 minutes the fish were removed to a recovery tank with clean water. After 7 minutes in the recovery tank they swam around and appeared to have resumed normal activity.
The experiment of Example 21 was repeated, using four 1-year old Ramirez fish of respective body lengths 3, 3.5, 3.5 and 4 cm, and adding the Ho Wood oil to a linalool concentration in the water of 75 ppm instead 50 ppm. […] At 1.5 minutes the fish were removed to a recovery tank with clean water. After 7 minutes in the recovery tank the fish swam around and appeared to have resumed normal activity.

Setting [1] is: Example 1: Koi 11 cm, 50 ppm linalool in water, 25° C.
The mark [2] stands for this setting: Example 2: Koi 12 cm, 75 ppm linalool in water.
[3] abbreviates: Example 3: Koi 12.5 cm, 100 ppm linalool in water.
The mark [4] stands for this setting: Example 18: three Koi 29-31 g, 50 ppm linalool, 21° C., pH 7.
Where [5] appears, read: Example 12: five Ramirez fish 0.7-0.85 g, experiment of example 9 (50 ppm linalool), 26° C., pH 7.

For `C=CC(C)(O)CCC=C(C)C` (stereo not drawn) [linalool], the “time of exposure until complete loss of equilibrium” value in the data set with Koi fish (setting [1]) stood at 6.5 min; in the data set on Koi fish (setting [2]), 7 min; in the data set with Koi fish (setting [3]), 4 min. The “time of exposure until fish swam on its back” value with Koi fish (setting [1]) worked out at 8 min. In addition, the “time of exposure until no response to external stimulation” value came to 9 min in the data set on Koi fish (setting [1]), 9 min in the data set on Koi fish (setting [2]) and 5.5 min in the data set with Koi fish (setting [3]). Moreover, the “time of exposure until partial loss of equilibrium” value worked out at 5.5 min in the data set with Koi fish (setting [1]) and 2.5 min in the data set with Koi fish (setting [3]). For the same compound, the “time of exposure until slight stress” value with Koi fish (setting [1]) amounted to 2.5 min; with Koi fish (setting [2]) it was 2 min. The “time in recovery tank until normal activity resumed” value was determined as 45 min in the data set on Koi fish (Example 1: Koi 11 cm, 50 ppm linalool, removed to clean water at 9.5 minutes); 40 min with Koi fish (Example 2: Koi 12 cm, 75 ppm linalool, removed to clean water at 20 minutes); 30 min in the data set with Koi fish (Example 3: Koi 12.5 cm, 100 ppm linalool, removed to clean water at 6 minutes). Besides, the “time in recovery tank until normal behavior resumed” value in the data set on Koi fish (Example 18: Koi, 50 ppm linalool, 21° C., removed at 9 5 minutes) was found to be 40 min; in the data set on Ramirez fish (Example 12: Ramirez fish, 26° C., removed after 10 minutes), 5 min. Besides, the “time after addition of linalool until fish became relaxed” value with Koi fish (setting [4]) amounted to 6 min; in the data set with Ramirez fish (setting [5]), 2 min. Also, the “time until fish completely anesthetized” value in the data set on Koi fish (setting [4]) is 9 min; in the data set on Ramirez fish (setting [5]), 5 min. Moreover, in the data set with Ramirez fish (Example 7: five Ramirez fish 3.5-4 cm, experiment of Example 1 repeated), the “mortality during a further three days of observation” value is given as “no mortality occurred”.
